# Patent publication US20140329682A1, “METHOD OF CONTROLLING WEED IN A SUGAR CANE FIELD” (SUMITOMO CHEMICAL COMPANY, LIMITED, priority 2011, published 2014)
# Tests used:
# Assay type in all cases: in vivo
# Amaranthus retroflexus [1] = assay: Herbicidal activity, spray above weed one week before planting (Example 5); details: sprayed above weed three weeks after seeding, 3 cm stem cutting planted one week after treatment, four weeks after treatment
# Method: (§1) A soil is packed into a plastic pot, and seeds of Amaranthus retroflexus are seeded thereon. Thereafter, the pot is placed in a greenhouse, and the weed is grown.
# A 30 cm to 40 cm stem cutting of sugar cane is placed on a wet soil, and germination is stimulated. The stem cutting from which a bud has been grown to about 1 cm is selected, and the length of the stem cutting is adjusted to be 3 cm so that the stem cutting has one node.
# (§2) The pot for a test is placed in a greenhouse.
# Amaranthus retroflexus [2] = assay: Herbicidal activity, soil surface spray, strobilurin-treated stem cutting (Example 8); details: 3 cm stem cutting treated with kresoxim-methyl, azoxystrobin or another listed strobilurin fungicide, four weeks after treatment
# Text: A 30 cm to 40 cm stem cutting of sugar cane is placed on a wet soil, and germination is stimulated. The stem cutting from which a bud has grown to about 1 cm is selected, and the length of the stem cutting is adjusted to be 3 cm so that the stem cutting has one node. Kresoxim-methyl, azoxystrobin, trifloxystrobin, fluoxastrobin, picoxystrobin, pyraclostrobin, dimoxystrobin, pyribencarb, metominostrobin, orysastrobin, enestrobin, pyraoxystrobin or pyrametostrobin is adhered to the stem cutting. A soil is packed into a plastic pot, and seeds of Amaranthus retroflexus are seeded thereon. The stem cutting of sugar cane treated with kresoxim-methyl, azoxystrobin, trifloxystrobin, fluoxastrobin, picoxystrobin, pyraclostrobin, dimoxystrobin, pyribencarb, metominostrobin, orysastrobin, enestrobin, pyraoxystrobin or pyrametostrobin is planted in the soil packed into the pot at a depth of 2 cm. […] Thereafter, the pot for a test is placed in a greenhouse.
# Amaranthus retroflexus [3] = assay: Herbicidal activity, spray above weed before planting, strobilurin-treated stem cutting (Example 9); details: sprayed above weed, 3 cm stem cutting treated with kresoxim-methyl, azoxystrobin or another listed strobilurin fungicide planted one week after treatment, four weeks after treatment
# Method: as §1
# A 30 cm to 40 cm stem cutting of sugar cane is placed on a wet soil, and germination is stimulated. The stem cutting from which a bud has grown to about 1 cm is selected, and the length of the stem cutting is adjusted to be 3 cm so that the stem cutting has one node. Kresoxim-methyl, azoxystrobin, trifloxystrobin, fluoxastrobin, picoxystrobin, pyraclostrobin, dimoxystrobin, pyribencarb, metominostrobin, orysastrobin, enestrobin, pyraoxystrobin or pyrametostrobin is adhered to the stem cutting.
# as §2
# Amaranthus retroflexus [4] = assay: Herbicidal activity, soil surface spray, insecticide-treated stem cutting (Example 6); details: 3 cm stem cutting treated with clothianidin, thiamethoxiam, imidacloprid, dinotefuran, nitenpyram, acetamiprid or thiacloprid, four weeks after treatment
# Method: A 30 cm to 40 cm stem cutting of sugar cane is placed on a wet soil, and germination is stimulated. The stem cutting from which a bud has grown to about 1 cm is selected, and the length of the stem cutting is adjusted to be 3 cm so that the stem cutting has one node. Clothianidin, thiamethoxiam, imidacloprid, dinotefuran, nitenpyram, acetamiprid or thiacloprid is adhered to the stem cutting. A soil is packed into a plastic pot, and seeds of Amaranthus retroflexus are seeded thereon. The stem cutting of sugar cane treated with clothianidin, thiamethoxiam, imidacloprid, dinotefuran, nitenpyram, acetamiprid or thiacloprid is planted in the soil packed into the pot at a depth of 2 cm. […] Thereafter, the pot for a test is placed in a greenhouse.
# Amaranthus retroflexus [5] = assay: Herbicidal activity, spray above weed before planting, metalaxyl-treated stem cutting (Example 13); details: sprayed above weed, 3 cm stem cutting treated with metalaxyl or metalaxyl-M planted one week after treatment, four weeks after treatment
# Method: A soil is packed into a plastic pot, and seeds of Amaranthus retroflexus are seeded thereon. Thereafter, a pot is placed in a greenhouse, and the weed is grown.
# A 30 cm to 40 cm stem cutting of sugar cane is placed on a wet soil, and germination is stimulated. The stem cutting from which a bud has grown to about 1 cm is selected, and the length of the stem cutting is adjusted to be 3 cm so that the stem cutting has one node. Metalaxyl or metalaxyl-M is adhered to the stem cutting.
# as §2
# Amaranthus retroflexus [6] = assay: Herbicidal activity, spray above weed before planting, azole-fungicide-treated stem cutting (Example 11); details: sprayed above weed, 3 cm stem cutting treated with azaconazole, bitertanol or another listed azole-type fungicide planted one week after treatment, four weeks after treatment
# Method: A soil is packed into a plastic pat, and seeds of Amaranthus retroflexus are seeded thereon. Thereafter, the pot is placed in a greenhouse, and the weed is grown.
# A 30 cm to 40 cm stem cutting of sugar cane is placed on a wet soil, and germination is stimulated. The stem cutting from which a bud has grown to about 1 cm is selected, and the length of the stem cutting is adjusted to be 3 cm so that the stem cutting has one node.
# as §2
# Amaranthus retroflexus [7] = assay: Herbicidal activity, soil surface spray, azole-fungicide-treated stem cutting (Example 10); details: 3 cm stem cutting treated with azaconazole, bitertanol or another listed azole-type fungicide, four weeks after treatment
# Text: A 30 to 40 cm stem cutting of sugar cane is placed on a wet soil, and germination is stimulated. The stem cutting from which a bud has grown to about 1 cm is selected, and the length of the stem cutting is adjusted to be 3 cm so that the stem cutting has one node. Azaconazole, bitertanol, bromoconazole, cyproconazole, difenoconazole, diniconazole, epoxyconazole, fenbuconazole, fluquinconazole, flusilazole, flutriafol, hexaconazole, imibenconazole, ipconazole, metconazole, myclobutanil, penconazole, propiconazole, prothioconazole, simeconazole, tebuconazole, tetraconazole, triadimenol, triticonazole, fenarimol, nuarimol, pyrifenox, imazalil, oxpoconazole fumarate, pefurazoate, procloraz or triflumizole is adhered to the stem cutting. A soil is packed into a plastic pot, and seeds of Amaranthus retroflexus are seeded thereon. The stem cutting of sugar cane treated with azaconazole, bitertanol, bromoconazole, cyproconazole, difenoconazole, diniconazole, epoxyconazole, fenbuconazole, fluquinconazole, flusilazole, flutriafol, hexaconazole, imibenconazole, ipconazole, metconazole, myclobutanil, penconazole, propiconazole, prothioconazole, simeconazole, tebuconazole, tetraconazole, triadimenol, triticonazole, fenarimol, nuarimol, pyrifenox, imazalil, oxpoconazole fumarate, pefurazoate, procloraz or triflumizole is planted in the soil packed into the pot at a depth of 2 cm. […] Thereafter, the pot for a test is placed in a greenhouse.
# Amaranthus retroflexus [8] = assay: Herbicidal activity, soil surface spray after planting (Example 4); details: 3 cm stem cutting, one node, soil surface spray on date of planting, four weeks after treatment
# Method: A 30 cm to 40 cm stem cutting of sugar cane is placed on a wet soil, and germination is stimulated. The stem cutting from which a bud has grown to about 1 cm is selected, and the length of the stem cutting is adjusted to be 3 cm so that the stem cutting has one node. A soil is packed into a plastic pot, and seeds of Amaranthus retroflexus are seeded thereon. The stem cutting of sugar cane is planted in the soil packed in the pot at a depth of 2 cm. […] Thereafter, the pot for a test is placed in a greenhouse.
# Amaranthus retroflexus [9] = assay: Herbicidal activity, spray above weed before planting, insecticide-treated stem cutting (Example 7); details: sprayed above weed, 3 cm stem cutting treated with clothianidin, thiamethoxiam, imidacloprid, dinotefuran, nitenpyram, acetamiprid or thiacloprid planted one week after treatment, four weeks after treatment
# Method: as §1
# A 30 cm to 40 cm stem cutting of sugar cane is placed on a wet soil, and germination is stimulated. The stem cutting from which a bud has grown to about 1 cm is selected, and the length of the stem cutting is adjusted to be 3 cm so that the stem cutting has one node. Clothianidin, thiamethoxiam, imidacloprid, dinotefuran, nitenpyram, acetamiprid or thiacloprid is adhered to the stem cutting.
# as §2
# Amaranthus retroflexus [10] = assay: Herbicidal activity, soil surface spray, metalaxyl-treated stem cutting (Example 12); details: 3 cm stem cutting treated with metalaxyl or metalaxyl-M, four weeks after treatment
# Method: A soil is packed into a plastic pot. Seeds of Amaranthus retroflexus are seeded thereon.
smiles,measurement,setting,value
CS(=O)(=O)NC(=O)c1cc(Oc2ccc(C(F)(F)F)cc2Cl)ccc1[N+](=O)[O-] [fomesafen],herbicidal activity against Amaranthus retroflexus,Amaranthus retroflexus [1],the controlling effect on a weed can be confirmed
same,herbicidal activity against Amaranthus retroflexus,Amaranthus retroflexus [2],the controlling effect on a weed can be confirmed
same,herbicidal activity against Amaranthus retroflexus,Amaranthus retroflexus [3],the controlling effect on a weed can be confirmed
same,herbicidal activity against Amaranthus retroflexus,Amaranthus retroflexus [4],the controlling effect on a weed can be confirmed
same,herbicidal activity against Amaranthus retroflexus,Amaranthus retroflexus [5],the controlling effect on a weed can be confirmed
same,herbicidal activity against Amaranthus retroflexus,Amaranthus retroflexus [6],the controlling effect on a weed can be confirmed
same,herbicidal activity against Amaranthus retroflexus,Amaranthus retroflexus [7],the control effect on a weed can be confirmed
same,herbicidal activity against Amaranthus retroflexus,Amaranthus retroflexus [8],the controlling effect on a weed can be confirmed
same,herbicidal activity against Amaranthus retroflexus,Amaranthus retroflexus [9],the controlling effect on a weed can be confirmed
same,herbicidal activity against Amaranthus retroflexus,Amaranthus retroflexus [10],the controlling effect on a weed can be confirmed
